Data: patent US5858980A, “Peptide fragments of myelin basic protein” (Autoimmune, Inc., priority 1995, dated 1999)

What was measured:
[1] = system: short term T-cell lines from peripheral blood mononuclear cells; test: T-cell line reactivity to MBP, PLP and MBP peptides (proliferation assay); format: cell-based, human; conditions: for mean frequency of T-cell lines reactive to the peptide, MS vs controls (FIG. 1): MS patients compared with combined normal and other neurologic disease controls; for MEAN FREQUENCY Ag REACTIVE LINES: mean +/- SEM
Procedure: A rapid T-cell cloning technique was used to examine whether there were immunodominant epitopes on human MBP reactive with Class II MHC phenotypes and the frequency of such reactivity. A total of 15,824 short term T-cell lines were generated from 51 human subjects by culturing peripheral blood mononuclear cells ([…]) with purified MBP (100 μg) followed 3 days later, and then every 3-4 days, by the addition of interleukin-2 (IL-2; from ABI, Columbia, Md.) and 2 units recombinant interleukin-4 (IL-4; Genzyme, Boston, Mass.). On Day 13 of culture, an aliquot from each line was tested for reactivity to MBP using the following proliferation assay: T-cell clones (1×10^5 cells/well) were plated in triplicate and cocultured with appropriate stimuli (i.e. 100 μg whole MBP or 5% IL-2) for 72 hours at 37° C., 90% humidity, 5% CO2, in 96 well flat bottomed microtiter plates (Costar). The cells were pulsed with 2 μCi [^3 H]TdR (2 Ci/mmole, New England Nuclear, Boston, Mass.) for the last 18 hours of culture. APCs were prepared by pulsing human Epstein-Barrvirus transformed human B-cells (the virus being commercially available from ATCC) or L-cells which are mouse cells transfected with human DR2 (L-cells are commercially available from ATCC under accession No. ATCC-CCL1 and can be transfected according to the method of Wilkinson, D. et al, J. Exp. Med., 1988, 167:1442-1458 using DNA encoding DR2 as per Wu, S. et al J. Immunol., 1987, 138:2953). B-cells or L-cells were used at 1×10^6 cells/well in complete media either in the presence or absence of 40 pM MBP or phospholipid protein (PLP) for 2 hours at 37° C., washing twice with 4° C. Hanks (Whittaker), followed by irradiation with 5000 rad. at 4° C. To stimulate T-cells without accessory APCs, 2 μM of MBP, PLP, or the appropriate fragment was added directly to the cells for the duration of the culture: 48 hours, followed by pulsing […] and then harvesting. Ten thousand APC's were used for 100,000 T-cell clones.
T-cell lines shown to be reactive to MBP or PLP were then tested using the same technique for reactivity to overlapping oligopeptide 20-mers encompassing the human MBP sequence as shown in Table 1 above. MBP and PLP reactivity frequency analysis was performed on patients with definite, relapsing-remitting MS (as diagnosed by Magnetic Resonance Imaging (MRI) and clinical examination), as well as on subjects with other neurologic diseases and on normal subjects (all age- and sex-matched to the MS patients).

actively induced EAE = test: suppression of actively induced EAE (MBP/CFA immunization); format: in vivo, Lewis rats
[2] = other neurological disease (n = 10)

143-168: human MBP fragment of amino acids 143-168, second immunodominant domain (RHGSKYLATASTMDHARHGFLPRHRD; UniProt P02686 143-168, looked up, fragment)
mean frequency of T-cell lines reactive to the peptide, MS vs controls (FIG. 1) [1]: both MS and control subjects showed high frequencies | MBP-reactive cell lines that reacted with either MBP residues 84-102 or 143-168 ([1]; cell lines from patients with MS): 70-80% | MBP-reactive T-cell lines that recognized either the 84-102 or the 143-168 peptide ([1]; control groups): about 34% | Peptide Reactivity (Fraction of MBP-Reactive Lines) ([1]; subject NS-dd, stimulus IL-2): 1/2 | Peptide Reactivity (Fraction of MBP-Reactive Lines) ([1]; subject NS-dd, stimulus MBP): 6/12 | Peptide Reactivity (Fraction of MBP-Reactive Lines) ([1]; subject NS-jl, stimulus IL-2): 5/12 | Peptide Reactivity (Fraction of MBP-Reactive Lines) ([1]; subject NS-kw, stimulus MBP): 5/8 | Peptide Reactivity (Fraction of MBP-Reactive Lines) ([1]; subject five, stimulus IL-2): 5/6 | Peptide Reactivity (Fraction of MBP-Reactive Lines) ([1]; subject five, stimulus MBP): 6/7 | Peptide Reactivity (Fraction of MBP-Reactive Lines) ([1]; subject seven, stimulus IL-2): 2/3 | Peptide Reactivity (Fraction of MBP-Reactive Lines) ([1]; subject seven, stimulus MBP): 5/8 | Peptide Reactivity (Fraction of MBP-Reactive Lines) ([1]; subject six, stimulus IL-2): 1/2 | Peptide Reactivity (Fraction of MBP-Reactive Lines) ([1]; subject three, stimulus IL-2): 2/2 | Peptide Reactivity (Fraction of MBP-Reactive Lines) ([1]; subject three, stimulus MBP): 2/2 | Peptide Reactivity (Fraction of MBP-Reactive Lines) ([1]; subject two, stimulus IL-2): 4/4 | Peptide Reactivity (Fraction of MBP-Reactive Lines) ([1]; subject two, stimulus MBP): 8/10

HHPARTAHYGSLPQKSEGRT [61-82, human MBP amino acid residues 61-82]
mean frequency of T-cell lines reactive to the peptide, MS vs controls (FIG. 1) [1]: Significant but less striking increases

guinea pig MBP peptide 131-150: control guinea pig MBP peptide (DYKSKGFKGAHDAQGTLSKI; UniProt P25188 131-150, looked up, fragment)
suppression of EAE via IV tolerization (actively induced EAE; intravenous administration prior to immunization (FIG. 7)): did not suppress | suppression of EAE via oral tolerization (actively induced EAE; oral administration prior to immunization (FIG. 7)): did not suppress

B1: PLP: proteolipid protein, myelin autoantigen (protein, UniProt P60201 2-277, looked up)
Myelin proteolipid protein: GLLECCARCLVGAPFASLVATGLCFFGVALFCGCGHEALTGTEKLIETYFSKNYQDYEYLINVIHAFQYVIYGTASFFFLYGALLLAEGFYTTGAVRQIFGDYKTTICGKGLSATVTGGQKGRGSRGQHQAHSLERVCHCLGKWLGHPDKFVGITYALTVVWLLVFACSAVPVYIYFNTWTTCQSIAFPSKTSASIGSLCADARMYGVLPWNAFPGKVCGSNLLSICKTAEFQMTFHLFIAAFVGAAATLVSLLTFMIAATYNFAVLKLMGRGTKF
#Ag REACTIVE LINES / TOTAL # LINES ([1]; MS patients (n = 23)): 20/432 | MEAN FREQUENCY Ag REACTIVE LINES ([1]; MS patients (n = 23), per-subject reactive/total lines): 3.34 ± 1.56 | #Ag REACTIVE LINES / TOTAL # LINES [1, 2]: 3/384 | MEAN FREQUENCY Ag REACTIVE LINES [1, 2]: 0.9 ± 0.62
